# Measured values as given in paper PMC9656482, “In Vitro and In Vivo Biological Activity of Ruthenium 1,10-Phenanthroline-5,6-dione Arene Complexes” (International Journal of Molecular Sciences, 2022).
# Assays:
# [1] = test system: HCT116 colorectal carcinoma cell line; assay: MTS antiproliferative assay, HCT116; type: cell-based, human
# Experimental: The cytotoxic potential of the complexes was evaluated by assessing their viability using the 3-(4,5-dimethylthiazol-2-yl)-5-(3-carboxymethoxyphenyl)-2-(4-sulfophenyl)-2H tetrazolium, inner salt (MTS) colorimetric assay in three tumor cell lines—ovarian carcinoma, A2780, colorectal carcinoma, HCT116, and colorectal carcinoma resistant to doxorubicin, HCT116-Dox and in normal human primary dermal fibroblasts (Figure 1 and Figure S7).
# Normal dermal human fibroblasts, colorectal carcinoma cell line HCT116 and ovarian carcinoma cell line A2780 were acquired from ATCC (Manassas, VA, USA). […] Fibroblasts and HCT116 cells were cultured in Dulbecco’s modified Eagle medium (DMEM, Thermo Fisher Scientific) and A2780 cell line was cultured on Roswell Park Memorial institute 1640 (RPMI-1640, Thermo Fisher Scientific). Both media were supplemented with 10% (v/v) fetal bovine serum (FBS, Thermo Fisher Scientific) and a mixture of 100 U/mL penicillin and 100 mg/mL streptomycin. The supplemented media are referred to from this point on as DMEM or RPMI for simplicity. […] All experiments underwent at 37 °C, 5% (v/v) CO2 and 99% (v/v) humidity in the dark.
# Cells were seeded in a 96-well plate in a density of 7500 cells/well, and after 24 h was submitted to a concentration range between 0.1–50 µM of complexes JHOR10 and JHOR11. DMSO with a 0.1% (v/v) concentration was used as vector control and cisplatin was used as positive control in all replicates. After 48 h incubation, cellular viability was inferred with the Cell Titer 96® Aqueous One solution cell proliferation assay (Promega, Madison, WI, USA) according to the manufacturer’s instructions and procedures previously described [18, 40]. The absorbance of the produced Formazan was quantified with a Tecan microplate reader, Infinite M200 (Tecan, Mannedorf, Switzerland) and the analysis of the dose–response curves to determine the relative IC50 was performed with GraphPad Prism 8.2.1 software (GraphPad Software, La Jolla, CA, USA).
# A2780 cells [2] = assay: Mitochondrial membrane potential (JC-1); type: cell-based, human; settings: A2780, 48 h, IC50 of JHOR11, relative to vehicle control
# Excerpt: This dye accumulates in the mitochondria of cells, presenting red fluorescence, characteristic of the aggregated form (JC-1 aggregated), in healthy cells, and green fluorescence, characteristic of monomer form (JC-1 monomer), when the mitochondrial membrane is compromised.
# The mitochondrial potential was quantified using the JC-1 mitochondrial membrane potential assay kit (Abnova, Taipé, Taiwan) according to manufacturer’s instructions and as previously described. Briefly, 2 × 10^5 A2780 cells were seeded on each well of a 6-well plate and incubated for 48 h with IC50 JHOR11, 0.1% (v/v) DMSO or 3.5 µM cisplatin. Cells with red (JC-1 aggregated) and green (JC-1 monomer) fluorescence were quantified with an Attune acoustic focusing flow cytometer and respective software (Thermo Fisher Scientific), and fluorescence ratios normalized to control samples incubated with DMSO.
# A2780 cells [3] = assay: Autophagy assay (flow cytometry); type: cell-based, human; settings: A2780, 48 h, IC50 of JHOR11
# Experimental: To understand if the cytotoxic effect of the complex is correlated with autophagy, A2780 cells were exposed for 48 h to the IC50 of complex JHOR11. They were then incubated with an autophagic fluorescent dye (Abcam) that becomes highly fluorescent when incorporated into pre-autophagosomes, autophagosomes or autophagolysosomes. Cells were also incubated with DMSO 0.1% (v/v) for vehicle control, and with 1.5 μM rapamycin and 3.5 μM cisplatin as positive controls.
# The fluorescence quantification and percentage of autophagic cells was performed on an Attune acoustic focusing flow cytometer and respective software (Thermo Fisher Scientific).
# A2780 cells [4] = assay: Production of reactive oxygen species (H2DCF-DA); type: cell-based, human; settings: A2780, 48 h, IC50 of JHOR11
# Experimental: Since the cytotoxicity of Ru(II) complexes is commonly accompanied by the induction of reactive oxygen species (ROS), the ROS concentration was quantified in A2780 cells exposed for 48 h to IC50 concentration of JHOR11, using DMSO 0.1% (v/v) as a vehicle control, and 3.5 µM cisplatin and 25 µM hydrogen peroxide (H2O2) as positive controls. The incubation with the dye 2′,7′-dichlorodihydrofluorescein diacetate (H2DCF-DA) that, in the presence of peroxides, emits green fluorescence after oxidation to 2′,7′-dichlorofluorescein (DCF), followed by fluorescence quantification by flow cytometry, allowed us to infer the induction of ROS.
# The production of ROS was evaluated using the dye 2′,7′-dichlorodihydrofluorescein diacetate (H2DCF-DA, ThermoFisher Scientific) according to previously described procedures. […] The fluorescence was quantified in an Attune acoustic focusing cytometer and respective software (Thermo Fisher Scientific) and normalized to the fluorescence of vector control sample.
# [5] = test system: normal human dermal fibroblasts; assay: Wound scratch assay; type: cell-based; settings: 24 h, IC50 of the complex, versus vector control
# Experimental: Cell migration is an essential process for tumor progression, being one of the major events that leads to cancer metastasis. To determine if JHOR11 inhibits cell tumorigenicity, the cell migration ability was analyzed by the wound scratch assay. […] The measure of the wound scratch after 0 h and 24 h allows the determination of the migration ability of the cells.
# For wound scratch assay normal human dermal fibroblasts were seeded on […] tissue plates in a cell density of 4 × 10^5 cells/plate and incubated at 37 °C, 5% (v/v), 99% (v/v) relative humidity until reach confluence. A sterile micropipette tip was then used to make a scratch on the confluent monolayer and medium was replaced by fresh medium supplemented with IC50 JHOR11 or 0.1% (v/v) DMSO, as vector control.
# [6] = test system: HCT116 cells injected into zebrafish embryos; assay: Zebrafish embryo xenograft assay; type: in vivo; settings: 80 μM in embryo water from 1 dpi, read at 4 dpi
# Experimental: HCT116 human colorectal cancer cell line was incubated in standard conditions (37 °C and 5% CO2) until a confluence of 80% was reached. Afterwards, the cells were concentrated and labelled with DiI and injected into the circulation (Duct of Cuvier) of 48 hpf zebrafish embryos to assay the proliferation in vivo of the cells exposed to JHOR11 (80 μM). JHOR11 was dissolved in the embryo water at 1 dpi (days post-injection) for the embryos to recover from the injection and the establishment of the cancer cells in the caudal hematopoietic tissue (CHT), and was maintained until the end of the experiment at 4 dpi. Imaging of the embryos was performed at 1 dpi and 4 dpi to quantify the fluorescence and area of the cells in the tail of the embryos, where cells invade and grow, and measure their proliferation over time to assess the inhibitory effect of JHOR11 over the cells. […]
# The images were obtained with an AZ-100 Nikon fluorescence stereomicroscope at two different times ([…]) allowing in vivo monitoring of the proliferating HCT116 cells labelled within the zebrafish embryo. The analysis of the cell progression was carried out using Quantifish Software. This software analyzes each image by measuring its fluorescence above a manually set threshold that produces the integrated intensity of each image as the output. […]
smiles,measurement,setting,value
Cc1ccc(C(C)C)cc1.F[P-](F)(F)(F)(F)F.O=C1C(=O)c2cccnc2-c2ncccc21.[Cl][Ru+] [JHOR11],IC50,"[1]; 48 h incubation, MTS, read-out: Relative IC50, HCT116",5.5 ± 0.3 µM
same,selective index in HCT116,[1]; relative to fibroblasts,8.1
same,JC-1 monomer/aggregate fluorescence ratio,A2780 cells [2],decrease in the monomer/aggregate fluorescence ratio (but with no statistical significance)
same,percentage of cells with autophagic events,A2780 cells [3],48.8 ± 7.5%
same,increase in intracellular ROS relative to vector control,A2780 cells [4],1.72 ± 0.4 times
same,percentage of regeneration of the wound scratch,[5],no significant differences
same,decrease of proliferation of HCT116 cells compared to control,[6],45%
